# Measurements taken from US9113641B2, “Probiotic bacteria and regulation of fat storage” (Arla Foods amba, priority 2007, dated 2015).
# Tests used:
# Format in all cases: cell-based, human
# [1] = tested on: Adipose differentiation-related protein (ADRP); experiment: Expression of PPARγ target gene ADRP in HCT116 cells (real time PCR); conditions: 100 μM CLA for 24 h
# Procedure: (§1) The human colorectal adenocarcinoma cell lines HCT116 (CCL-247, deposit at ATCC), LoVo (CCL-229, deposit ATCC), HT29 (HTB-38, deposit ATCC) and SW480 (CCL-228, deposit ATCC) were grown and maintained according to supplier's recommendations.
# (§2) Conjugated linoleic acid (CLA; 94594) was purchased as a trans-10, cis-12 mix from Sigma. PPARγ and PPARα ligands Troglitazone (5 μM) and WY-14643 (100 μM) were products from Cayman.
# (§3) RNA was prepared using the Qiagen RNeasy Mini Kit following the manufacturer's protocol and cDNA was synthesised using the cDNA synthesis kit from Invitrogen according to protocol. Semi-quantitative, SYBR Green based (Applied Biosystems) real time PCR was used to detect transcripts. Forward and reverse primers were mixed at equal concentration and used at a final concentration of 0.2 μM. ADRP Fw: 5′-[…]-3′ (SEQ ID NO:1), Rv: 5′-[…]-3′ (SEQ ID NO:2); Beta-actin Fw: 5′-CCTGGCACCCAGCACAAT-3′ (SEQ ID NO:3), Rv: 5′-[…]-3′ (SEQ ID NO:4); FIAF Fw: 5′-AAAGAGGCTGCCCGAGAT-3′ (SEQ ID NO:5), Rv: 5′-TCTCCCCAACCTGGAACA-3′ (SEQ ID NO:6); ME Fw: 5′-[…]-3′ (SEQ ID NO:7), Rv: 5′-[…]-3′ (SEQ ID NO:8). Each experiment was carried out in sample duplicates. The mRNA levels of each sample were determined in triplicates. Real time PCR was performed using the ABI 7500 System for data acquisition and analysis by using the ABI 7500 System Sequence Detection software. […]
# [2] = tested on: FIAF expression in HCT116 cells; experiment: FIAF expression in HCT116 cells by real time PCR after stimulation with bacteria, media or compounds; conditions: concentration curve, 100 μM CLA for 6 h and 24 h
# Procedure: as §1
# Strain F19 was always pre-cultured for 6-8 h at 37° C. on a rotating platform (225 rpm). Pre-cultures were then added to pre-warmed deMan Rogosa Sharpe (MRS) medium (dilution 1:20). The cultures were cultivated overnight prior to use. Bacterial concentration at OD600nm was determined: 1 OD600nm=1×10^8 F19/ml. The required amount of F19 was resuspended in an appropriate volume of the respective pre-warmed medium without antibiotics.
# Co-culture was prepared by washing the colonic cells with warm PBS. Cells were incubated with 2×10^7/ml of F19 or with medium alone. The experiment was terminated by thoroughly washing the plates with ice-cold PBS.
# As a control, F19 was heat-inactivated by incubating at 80° C. for 30 minutes. […]
# RNA was prepared using the Qiagen RNeasy Mini Kit following the manufacturer's protocol and cDNA was synthesised using the cDNA synthesis kit from Invitrogen according to protocol. Semi-quantitative, SYBR Green based (Applied Biosystems) real time PCR was used to detect transcripts. […] The mRNA levels of each sample were determined in triplicates. […]
# malic enzyme (ME) = experiment: Expression of PPARα target gene ME in HCT116 cells (real time PCR); conditions: 100 μM CLA for 24 h
# Procedure: as §1, §2, §3
# [3] = tested on: FIAF expression in HT29 cells, PPARγ incapacitated by siRNA; experiment: FIAF expression in HT29 cells with PPARγ siRNA
# Procedure: as §1
# RNA was prepared using the Qiagen RNeasy Mini Kit following the manufacturer's protocol and cDNA was synthesised using the cDNA synthesis kit from Invitrogen according to protocol. Semi-quantitative, SYBR Green based (Applied Biosystems) real time PCR was used to detect transcripts. Forward and reverse primers were mixed at equal concentration and used at a final concentration of 0.2 μM. ADRP Fw: 5′-[…]-3′ (SEQ ID NO:1), Rv: 5′-[…]-3′ (SEQ ID NO:2); Beta-actin Fw: 5′-CCTGGCACCCAGCACAAT-3′ (SEQ ID NO:3), Rv: 5′-[…]-3′ (SEQ ID NO:4); FIAF Fw: 5′-AAAGAGGCTGCCCGAGAT-3′ (SEQ ID NO:5), Rv: 5′-TCTCCCCAACCTGGAACA-3′ (SEQ ID NO:6); ME Fw: 5′-[…]-3′ (SEQ ID NO:7), Rv: 5′-[…]-3′ (SEQ ID NO:8). Each experiment was carried out in sample duplicates. The mRNA levels of each sample were determined in triplicates. Real time PCR was performed using the ABI 7500 System for data acquisition and analysis by using the ABI 7500 System Sequence Detection software. Data is presented as mean values with standard errors.
# Elimination of PPAR transcripts from HT29 cells was accomplished by Dharmacons readymade siRNA products (SMARTpool Human PPARG). […]
substance,measurement,setting,value
Conjugated linoleic acid [CLA],Expression of PPARγ target gene ADRP,[1],increased expression
same,"FIAF expression induced by CLA, dose and time dependence",[2],upregulate FIAF expression in a dose and time dependent manner
same,Expression of PPARα target gene ME,malic enzyme (ME),increased expression
same,FIAF expression when PPARγ is incapacitated by siRNA,[3],no longer enhanced
